# Measurements taken from the kinase profiling compilation of Christmann-Franck et al. (2016).
# Experiments:
# Experiment in all cases: radiometric filter-binding kinase assay
# BRSK2 (human) = BRSK2 (human) (UniProt Q8IWQ3)
# NUAK1 (human) = NUAK1 (human) (UniProt O60285)
# HIPK1 (human) = HIPK1 (human) (UniProt Q86Z02)
# PRKCZ (human) = PRKCZ (human) (UniProt Q05513)
# MAPK1 (human) = MAPK1 (human) (UniProt P28482)
# MAP3K5 (human) = MAP3K5 (human) (UniProt Q99683)
# HIPK3 (human) = HIPK3 (human) (UniProt Q9H422)
# MAPK3 (human) = MAPK3 (human) (UniProt P27361)
# CDK2 CCNA2 (human) = CDK2 CCNA2 (human) (UniProt P20248+P24941)
# CLK2 (human) = CLK2 (human) (UniProt P49760)
# DAPK1 (human) = DAPK1 (human) (UniProt P53355)
# EEF2K (human) = EEF2K (human) (UniProt O00418)
# STK3 (human) = STK3 (human) (UniProt Q13188)
# MST4 (human) = MST4 (human) (UniProt Q9P289)
# RPS6KA5 KD1 KD2 (human) = RPS6KA5 KD1 KD2 (human) (UniProt O75582)
# JAK2 JH1 JH2 (human) = JAK2 JH1 JH2 (human) (UniProt O60674)
# AURKA (human) = AURKA (human) (UniProt O14965)
# EPHB4 (human) = EPHB4 (human) (UniProt P54760)
# ERBB4 (human) = ERBB4 (human) (UniProt Q15303)
# RPS6KA3 KD1 KD2 (human) = RPS6KA3 KD1 KD2 (human) (UniProt P51812)
# GCK (human) = GCK (human) (UniProt Q12851)
# PAK6 (human) = PAK6 (human) (UniProt Q9NQU5)
# FLT1 (human) = FLT1 (human) (UniProt P17948)
# MARK3 (human) = MARK3 (human) (UniProt P27448)
# SRC (human) = SRC (human) (UniProt P12931)
# RPS6KA1 KD1 KD2 (human) = RPS6KA1 KD1 KD2 (human) (UniProt Q15418)
# TAOK1 (human) = TAOK1 (human) (UniProt Q7L7X3)
# CHEK2 (human) = CHEK2 (human) (UniProt O96017)
# NTRK1 (human) = NTRK1 (human) (UniProt P04629)
# CHEK1 (human) = CHEK1 (human) (UniProt O14757)
# [1] = tested on: SGK1 (human), O00141 [S422D]
# PLK1 (human) = PLK1 (human) (UniProt P53350)
# PRKCA (human) = PRKCA (human) (UniProt P17252)
# MARK4 (human) = MARK4 (human) (UniProt Q96L34)
# AURKA (human), sequence (O14965 whole entry, looked up): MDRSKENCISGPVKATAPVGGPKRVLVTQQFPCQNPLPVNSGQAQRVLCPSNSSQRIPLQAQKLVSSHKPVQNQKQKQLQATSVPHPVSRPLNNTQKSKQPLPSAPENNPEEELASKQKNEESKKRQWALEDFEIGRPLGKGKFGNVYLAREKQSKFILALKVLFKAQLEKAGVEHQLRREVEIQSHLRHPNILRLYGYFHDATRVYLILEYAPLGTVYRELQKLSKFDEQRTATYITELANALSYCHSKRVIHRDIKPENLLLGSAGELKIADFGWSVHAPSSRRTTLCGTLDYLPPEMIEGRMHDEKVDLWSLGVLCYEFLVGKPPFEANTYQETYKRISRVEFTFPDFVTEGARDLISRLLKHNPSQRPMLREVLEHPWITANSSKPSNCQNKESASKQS
# GCK (human), sequence (Q12851 whole entry, looked up): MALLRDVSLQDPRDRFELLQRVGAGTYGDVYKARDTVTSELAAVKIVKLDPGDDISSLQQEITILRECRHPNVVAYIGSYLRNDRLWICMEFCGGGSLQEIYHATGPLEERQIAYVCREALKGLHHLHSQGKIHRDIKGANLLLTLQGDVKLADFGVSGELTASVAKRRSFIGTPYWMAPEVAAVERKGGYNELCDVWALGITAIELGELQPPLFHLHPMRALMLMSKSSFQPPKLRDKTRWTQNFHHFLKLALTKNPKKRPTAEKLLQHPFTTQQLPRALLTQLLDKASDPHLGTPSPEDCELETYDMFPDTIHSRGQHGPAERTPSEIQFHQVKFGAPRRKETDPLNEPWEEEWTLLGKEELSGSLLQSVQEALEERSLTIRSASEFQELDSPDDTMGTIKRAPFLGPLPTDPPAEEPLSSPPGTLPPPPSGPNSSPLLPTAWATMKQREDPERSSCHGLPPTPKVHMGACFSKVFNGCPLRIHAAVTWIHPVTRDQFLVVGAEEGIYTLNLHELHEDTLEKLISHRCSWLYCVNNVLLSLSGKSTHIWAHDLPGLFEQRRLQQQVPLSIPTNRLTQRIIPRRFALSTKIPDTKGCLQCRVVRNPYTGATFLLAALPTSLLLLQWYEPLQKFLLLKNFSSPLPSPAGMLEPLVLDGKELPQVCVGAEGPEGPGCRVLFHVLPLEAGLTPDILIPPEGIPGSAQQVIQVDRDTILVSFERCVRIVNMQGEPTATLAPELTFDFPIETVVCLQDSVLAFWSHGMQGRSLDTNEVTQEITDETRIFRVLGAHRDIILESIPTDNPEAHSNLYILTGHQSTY
# SRC (human), sequence (P12931 whole entry, looked up): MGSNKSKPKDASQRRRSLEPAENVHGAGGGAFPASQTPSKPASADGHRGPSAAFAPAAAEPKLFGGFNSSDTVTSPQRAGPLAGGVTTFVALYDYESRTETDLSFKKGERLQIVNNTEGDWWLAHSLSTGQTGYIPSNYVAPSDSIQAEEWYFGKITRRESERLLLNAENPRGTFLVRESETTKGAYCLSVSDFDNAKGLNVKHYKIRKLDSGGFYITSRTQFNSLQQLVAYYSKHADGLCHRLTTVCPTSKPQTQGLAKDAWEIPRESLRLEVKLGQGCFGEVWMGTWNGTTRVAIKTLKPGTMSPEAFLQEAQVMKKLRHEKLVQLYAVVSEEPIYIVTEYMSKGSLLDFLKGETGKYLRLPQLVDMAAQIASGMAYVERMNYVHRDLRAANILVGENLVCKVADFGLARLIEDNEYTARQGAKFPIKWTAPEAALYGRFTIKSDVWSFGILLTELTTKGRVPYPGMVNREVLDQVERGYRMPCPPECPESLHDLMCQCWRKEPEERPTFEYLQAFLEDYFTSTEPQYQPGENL
# BRSK2 (human), sequence (Q8IWQ3 whole entry, looked up): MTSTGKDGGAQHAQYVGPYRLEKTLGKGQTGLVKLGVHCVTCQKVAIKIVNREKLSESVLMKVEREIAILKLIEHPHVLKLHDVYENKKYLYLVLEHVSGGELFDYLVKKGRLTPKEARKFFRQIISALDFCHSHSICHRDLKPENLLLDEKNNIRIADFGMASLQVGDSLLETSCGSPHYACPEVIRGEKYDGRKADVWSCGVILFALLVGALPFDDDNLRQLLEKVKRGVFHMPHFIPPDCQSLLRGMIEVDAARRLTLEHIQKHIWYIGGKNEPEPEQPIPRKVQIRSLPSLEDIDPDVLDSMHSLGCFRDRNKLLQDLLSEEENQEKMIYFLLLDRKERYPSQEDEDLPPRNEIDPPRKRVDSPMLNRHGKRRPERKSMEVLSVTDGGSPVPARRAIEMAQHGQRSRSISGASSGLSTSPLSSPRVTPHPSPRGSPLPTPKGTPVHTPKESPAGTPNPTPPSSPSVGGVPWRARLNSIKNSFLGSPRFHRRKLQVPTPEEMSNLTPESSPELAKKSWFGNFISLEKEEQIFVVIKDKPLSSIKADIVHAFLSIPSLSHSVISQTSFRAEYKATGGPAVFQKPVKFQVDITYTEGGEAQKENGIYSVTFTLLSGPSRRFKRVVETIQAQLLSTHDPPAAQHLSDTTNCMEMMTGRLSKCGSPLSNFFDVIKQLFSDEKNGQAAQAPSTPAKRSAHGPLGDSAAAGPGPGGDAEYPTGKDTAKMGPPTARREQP
# NTRK1 (human), sequence (P04629 whole entry, looked up): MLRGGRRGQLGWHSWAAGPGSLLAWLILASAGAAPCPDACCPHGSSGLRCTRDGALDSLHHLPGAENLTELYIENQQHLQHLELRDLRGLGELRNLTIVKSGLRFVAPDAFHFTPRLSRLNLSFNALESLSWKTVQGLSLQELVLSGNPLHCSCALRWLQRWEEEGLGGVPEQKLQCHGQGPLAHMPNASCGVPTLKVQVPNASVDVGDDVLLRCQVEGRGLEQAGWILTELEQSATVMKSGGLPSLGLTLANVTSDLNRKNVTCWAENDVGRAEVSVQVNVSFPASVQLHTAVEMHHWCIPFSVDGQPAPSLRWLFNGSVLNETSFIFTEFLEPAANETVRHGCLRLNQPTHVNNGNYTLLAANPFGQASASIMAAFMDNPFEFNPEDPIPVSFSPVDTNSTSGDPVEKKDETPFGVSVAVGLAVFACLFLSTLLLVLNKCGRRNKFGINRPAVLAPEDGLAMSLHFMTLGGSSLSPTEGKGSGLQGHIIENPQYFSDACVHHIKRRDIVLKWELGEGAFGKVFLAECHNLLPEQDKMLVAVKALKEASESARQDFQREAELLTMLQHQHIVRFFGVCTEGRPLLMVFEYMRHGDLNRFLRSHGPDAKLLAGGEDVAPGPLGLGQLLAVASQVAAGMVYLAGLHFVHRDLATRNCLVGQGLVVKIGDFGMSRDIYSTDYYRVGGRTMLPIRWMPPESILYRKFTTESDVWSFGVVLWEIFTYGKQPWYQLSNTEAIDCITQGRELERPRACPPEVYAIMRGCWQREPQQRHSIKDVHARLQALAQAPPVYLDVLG
# MARK3 (human), sequence (P27448 whole entry, looked up): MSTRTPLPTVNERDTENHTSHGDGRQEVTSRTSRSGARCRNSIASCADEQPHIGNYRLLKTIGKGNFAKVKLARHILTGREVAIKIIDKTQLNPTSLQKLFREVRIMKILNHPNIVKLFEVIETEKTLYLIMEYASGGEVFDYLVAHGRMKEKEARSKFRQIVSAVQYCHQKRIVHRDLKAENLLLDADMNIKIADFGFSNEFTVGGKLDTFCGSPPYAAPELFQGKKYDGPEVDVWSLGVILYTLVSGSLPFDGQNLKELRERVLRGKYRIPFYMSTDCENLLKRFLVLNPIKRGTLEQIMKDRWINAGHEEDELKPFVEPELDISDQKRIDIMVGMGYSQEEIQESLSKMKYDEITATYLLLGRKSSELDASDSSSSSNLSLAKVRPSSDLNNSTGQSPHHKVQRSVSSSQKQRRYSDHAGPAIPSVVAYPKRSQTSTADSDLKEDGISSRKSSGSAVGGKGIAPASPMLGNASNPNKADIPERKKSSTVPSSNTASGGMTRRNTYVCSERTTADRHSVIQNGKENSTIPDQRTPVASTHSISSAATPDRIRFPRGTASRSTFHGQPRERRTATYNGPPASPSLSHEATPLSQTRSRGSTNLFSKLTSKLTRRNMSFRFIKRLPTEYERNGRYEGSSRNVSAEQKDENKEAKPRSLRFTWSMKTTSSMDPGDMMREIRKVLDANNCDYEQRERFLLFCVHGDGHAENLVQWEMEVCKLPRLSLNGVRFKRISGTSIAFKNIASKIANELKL
# NUAK1 (human), sequence (O60285 whole entry, looked up): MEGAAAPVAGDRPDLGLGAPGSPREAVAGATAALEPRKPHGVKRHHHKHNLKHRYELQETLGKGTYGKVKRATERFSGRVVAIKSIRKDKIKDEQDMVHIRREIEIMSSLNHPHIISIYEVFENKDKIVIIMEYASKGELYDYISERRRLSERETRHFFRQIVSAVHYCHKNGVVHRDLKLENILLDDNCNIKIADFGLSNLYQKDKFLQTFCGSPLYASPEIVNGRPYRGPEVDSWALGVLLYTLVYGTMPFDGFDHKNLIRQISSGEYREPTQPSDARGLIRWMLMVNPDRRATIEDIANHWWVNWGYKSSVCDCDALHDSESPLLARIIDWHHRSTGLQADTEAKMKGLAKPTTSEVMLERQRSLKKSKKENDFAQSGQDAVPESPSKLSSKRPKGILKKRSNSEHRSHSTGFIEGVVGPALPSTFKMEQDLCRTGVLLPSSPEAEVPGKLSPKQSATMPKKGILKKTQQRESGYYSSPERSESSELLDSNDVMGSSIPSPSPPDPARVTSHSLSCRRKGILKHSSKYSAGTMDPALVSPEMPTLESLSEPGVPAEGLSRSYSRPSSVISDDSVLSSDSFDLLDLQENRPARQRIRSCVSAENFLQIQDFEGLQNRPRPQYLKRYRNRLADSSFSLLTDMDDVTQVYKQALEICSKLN
structure (smiles),measurement,setting,value
NC(=O)c1c(NC(=O)C2CC2)sc2c1CCCC2,residual activity,BRSK2 (human); compound 1.0 µM,99%
same,residual activity,BRSK2 (human); compound 10.0 µM,73%
same,residual activity,NUAK1 (human); compound 1.0 µM,75%
same,residual activity,NUAK1 (human); compound 10.0 µM,30%
same,residual activity,HIPK1 (human); compound 1.0 µM,100%
same,residual activity,HIPK1 (human); compound 10.0 µM,87%
same,residual activity,PRKCZ (human); compound 1.0 µM,104%
same,residual activity,PRKCZ (human); compound 10.0 µM,104%
same,residual activity,MAPK1 (human); compound 1.0 µM,99%
same,residual activity,MAPK1 (human); compound 10.0 µM,89%
same,residual activity,MAP3K5 (human); compound 1.0 µM,106%
same,residual activity,MAP3K5 (human); compound 10.0 µM,96%
same,residual activity,HIPK3 (human); compound 1.0 µM,89%
same,residual activity,HIPK3 (human); compound 10.0 µM,102%
same,residual activity,MAPK3 (human); compound 1.0 µM,107%
same,residual activity,MAPK3 (human); compound 10.0 µM,125%
same,residual activity,CDK2 CCNA2 (human); compound 1.0 µM,89%
same,residual activity,CDK2 CCNA2 (human); compound 10.0 µM,48%
same,residual activity,CLK2 (human); compound 1.0 µM,89%
same,residual activity,CLK2 (human); compound 10.0 µM,49%
same,residual activity,DAPK1 (human); compound 1.0 µM,102%
same,residual activity,DAPK1 (human); compound 10.0 µM,86%
same,residual activity,EEF2K (human); compound 1.0 µM,97%
same,residual activity,EEF2K (human); compound 10.0 µM,90%
same,residual activity,STK3 (human); compound 1.0 µM,90%
same,residual activity,STK3 (human); compound 10.0 µM,53%
same,residual activity,MST4 (human); compound 1.0 µM,100%
same,residual activity,MST4 (human); compound 10.0 µM,57%
same,residual activity,RPS6KA5 KD1 KD2 (human); compound 1.0 µM,108%
same,residual activity,RPS6KA5 KD1 KD2 (human); compound 10.0 µM,108%
same,residual activity,JAK2 JH1 JH2 (human); compound 1.0 µM,104%
same,residual activity,JAK2 JH1 JH2 (human); compound 10.0 µM,60%
same,residual activity,AURKA (human); compound 1.0 µM,87%
same,residual activity,AURKA (human); compound 10.0 µM,22%
same,residual activity,EPHB4 (human); compound 1.0 µM,101%
same,residual activity,EPHB4 (human); compound 10.0 µM,55%
same,residual activity,ERBB4 (human); compound 1.0 µM,106%
same,residual activity,ERBB4 (human); compound 10.0 µM,98%
same,residual activity,RPS6KA3 KD1 KD2 (human); compound 1.0 µM,107%
same,residual activity,RPS6KA3 KD1 KD2 (human); compound 10.0 µM,89%
same,residual activity,GCK (human); compound 1.0 µM,69%
same,residual activity,GCK (human); compound 10.0 µM,17%
same,residual activity,PAK6 (human); compound 1.0 µM,83%
same,residual activity,PAK6 (human); compound 10.0 µM,80%
same,residual activity,FLT1 (human); compound 1.0 µM,45%
same,residual activity,FLT1 (human); compound 10.0 µM,9%
same,residual activity,MARK3 (human); compound 1.0 µM,90%
same,residual activity,MARK3 (human); compound 10.0 µM,69%
same,residual activity,SRC (human); compound 1.0 µM,102%
same,residual activity,SRC (human); compound 10.0 µM,87%
same,residual activity,RPS6KA1 KD1 KD2 (human); compound 1.0 µM,101%
same,residual activity,RPS6KA1 KD1 KD2 (human); compound 10.0 µM,95%
same,residual activity,TAOK1 (human); compound 1.0 µM,87%
same,residual activity,TAOK1 (human); compound 10.0 µM,69%
same,residual activity,CHEK2 (human); compound 1.0 µM,74%
same,residual activity,CHEK2 (human); compound 10.0 µM,35%
same,residual activity,NTRK1 (human); compound 1.0 µM,90%
same,residual activity,NTRK1 (human); compound 10.0 µM,30%
same,residual activity,CHEK1 (human); compound 1.0 µM,95%
same,residual activity,CHEK1 (human); compound 10.0 µM,84%
same,residual activity,[1]; compound 1.0 µM,109%
same,residual activity,[1]; compound 10.0 µM,107%
same,residual activity,PLK1 (human); compound 1.0 µM,98%
same,residual activity,PLK1 (human); compound 10.0 µM,100%
same,residual activity,PRKCA (human); compound 1.0 µM,93%
same,residual activity,PRKCA (human); compound 10.0 µM,86%
same,residual activity,MARK4 (human); compound 1.0 µM,105%
same,residual activity,MARK4 (human); compound 10.0 µM,69%
